Results from the supplement of paper PMC4314810.
± gives the standard deviation of the averaged measurements.

System: MCF7
Experiment: HRG-induced Akt activation (dPAkt = log2 pAkt/Akt HRG-stimulated minus log2 pAkt/Akt basal) (log2 ratio difference); higher = stronger HRG-induced Akt(T308) phosphorylation
Conditions: miRNA mimic concentration 10 nM; time after transfection 72 h; heregulin 10 ng/ml; stimulation time 1 h
Outline: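 MCF7 cells ([…], 96-well plates) carrying one of 879 miRNA mimics, transfected at 10 nM final with Lipofectamine RNAiMax in two biological replicates, were stimulated after 72 h with 10 ng/ml heregulin-beta1 for 1 h or left unstimulated. Phospho-Akt(T308) and total Akt in cells fixed with 4% PFA were read by In-Cell Western on an Odyssey and corrected for column-wise fixation decay to give log2(pAkt/Akt). Heregulin-induced Akt activation is the replicate mean of stimulated minus unstimulated ratios.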

Row | Sequence | HRG-induced Akt activation (log2)
1 | AAAAACUGAGACUACUUUUGCA | 1.33 ± 0.15
2 | AAAAACUGUAAUUACUUUU | 1.15 ± 0.3
3 | AAAACCGUCUAGUUACAGUUGU | 1.26 ± 0.26
4 | AAAACGGUGAGAUUUUGUUUU | 1.75 ± 0.2
5 | AAAACUGUAAUUACUUUUGUAC | 1.26 ± 0.31
6 | AAAAGCUGGGUUGAGAGGA | 1.507 ± 0.011
7 | AAAAGCUGGGUUGAGAGGGCAA | 1.61 ± 0.092
8 | AAAAGCUGGGUUGAGAGGGCGA | 1.44 ± 0.13
9 | AAAAGCUGGGUUGAGAGGGU | 1.89 ± 0.17
10 | AAAAGUAAUCGCGGUUUUUGUC | 1.2 ± 0.063
11 | AAAAGUAAUUGCGAGUUUUACC | 1.34 ± 0.091
12 | AAAAGUAAUUGCGGAUUUUGCC | 0.977 ± 0.53
13 | AAAAGUAAUUGCGGUCUUUGGU | 1.32 ± 0.034
14 | AAAAGUAAUUGCGGUUUUUGCC | 1.53 ± 0.17
15 | AAAAGUAAUUGUGGUUUUGGCC | 1.15 ± 0.15
16 | AAAAGUAAUUGUGGUUUUUGCC | 1.07 ± 0.085
17 | AAAAGUACUUGCGGAUUUUGCU | 1.58 ± 0.21
18 | AAAAGUAUUUGCGGGUUUUGUC | 1.58 ± 0.098
19 | AAAAGUGCUUACAGUGCAGGUAG | 1.2 ± 0.069
20 | AAAAUGGUGCCCUAGUGACUACA | 1.9 ± 0.43
21 | AAAAUGGUUCCCUUUAGAGUGU | 1.21 ± 0.31
22 | AAACAAACAUGGUGCACUUCUU | 1.48 ± 0.08
23 | AAACAUUCGCGGUGCACUUCUU | 1.84 ± 0.035
24 | AAACCGUUACCAUUACUGAGUU | 1.22 ± 0.2

Row | Sequence | HRG-induced Akt activation (log2)
25 | AAACCUGUGUUGUUCAAGAGUC | 0.883 ± 0.023
26 | AAACUACUGAAAAUCAAAGAU | 1.76 ± 0.11
27 | AAACUCUACUUGUCCUUCUGAGU | 0.945 ± 0.39
28 | AAAGACAUAGGAUAGAGUCACCUC | 1.9 ± 0.072
29 | AAAGCGCUUCCCUUCAGAGUG | 1.53 ± 0.33
30 | AAAGGAUUCUGCUGUCGGUCCCACU | 1.63 ± 0.2
31 | AAAGUAGCUGUACCAUUUGC | 1.44 ± 0.56
32 | AAAGUGCAUCCUUUUAGAGGUU | 0.411 ± 0.64
33 | AAAGUGCAUCCUUUUAGAGUGU | 0.756 ± 0.11
34 | AAAGUGCAUCUUUUUAGAGGAU | 0.724 ± 0.058
35 | AAAGUGCUGCGACAUUUGAGCGU | 0.644 ± 0.26
36 | AAAGUGCUUCCCUUUGGACUGU | 0.806 ± 0.049
37 | AAAGUGCUUCCUUUUAGAGGG | 0.928 ± 0.12
38 | AAAGUGCUUCCUUUUAGAGGGU | 0.665 ± 0.11
39 | AAAGUGCUUCCUUUUUGAGGG | 0.963 ± 0.46
40 | AAAGUGCUUCUCUUUGGUGGGU | 0.92 ± 0.047
41 | AAAGUUCUGAGACACUCCGACU | 1.35 ± 0.082
42 | AAAUCUCUGCAGGCAAAUGUGA | 1.19 ± 0.11
43 | AAAUUAUUGUACAUCGGAUGAG | 1.48 ± 0.61
44 | AACAAUAUCCUGGUGCUGAGUG | 1.79 ± 0.41
45 | AACACACCUAUUCAAGGAUUCA | 1.11 ± 0.37
46 | AACACACCUGGUUAACCUCUUU | 1.23 ± 0.54
47 | AACAGGUGACUGGUUAGACAA | 2.3 ± 0.13
48 | AACAUAGAGGAAAUUCCACGU | 1.17 ± 0.5

Row | Sequence | HRG-induced Akt activation (log2)
49 | AACAUCACAGCAAGUCUGUGCU | 1.32 ± 0.38
50 | AACAUUCAACCUGUCGGUGAGU | 2.38 ± 0.33
51 | AACAUUCAACGCUGUCGGUGAGU | 1.71 ± 0.13
52 | AACAUUCAUUGCUGUCGGUGGGU | 1.77 ± 0.45
53 | AACAUUCAUUGUUGUCGGUGGGU | 2.236 ± 0.017
54 | AACCAGCACCCCAACUUUGGAC | 2.3 ± 0.14
55 | AACCAUCGACCGUUGAGUGGAC | 0.92 ± 0.14
56 | AACCCGUAGAUCCGAACUUGUG | 1.11 ± 0.13
57 | AACCCGUAGAUCCGAUCUUGUG | 0.985 ± 0.36
58 | AACGCACUUCCCUUUAGAGUGU | 1.23 ± 0.16
59 | AACGCCAUUAUCACACUAAAUA | 1.14 ± 0.04
60 | AACUGGAUCAAUUAUAGGAGUG | 1.79 ± 0.16
61 | AACUGGCCCUCAAAGUCCCGCU | 2.215 ± 0.013
62 | AACUGGCCUACAAAGUCCCAGU | 2.21 ± 0.14
63 | AACUGUUUGCAGAGGAAACUGA | 1.816 ± 0.014
64 | AAGACGGGAGGAAAGAAGGGAG | 1.22 ± 0.24
65 | AAGAUGUGGAAAAAUUGGAAUC | 1.68 ± 0.17
66 | AAGCAGCUGCCUCUGAGGC | 2.16 ± 0.21
67 | AAGCAUUCUUUCAUUGGUUGG | 1.4 ± 0.014
68 | AAGCCCUUACCCCAAAAAGCAU | 1.6 ± 0.26
69 | AAGCCCUUACCCCAAAAAGUAU | 1.73 ± 0.12
70 | AAGCCUGCCCGGCUCCUCGGG | 1.81 ± 0.26
71 | AAGCUGCCAGUUGAAGAACUGU | 1.23 ± 0.26
72 | AAGGAGCUCACAGUCUAUUGAG | 1.97 ± 0.2

Row | Sequence | HRG-induced Akt activation (log2)
73 | AAGGAGCUUACAAUCUAGCUGGG | 1.87 ± 0.21
74 | AAGGCAGGGCCCCCGCUCCCC | 1.14 ± 0.77
75 | AAGUAGUUGGUUUGUAUGAGAUGGUU | 1.424 ± 0.014
76 | AAGUGAUCUAAAGGCCUACAU | 1.67 ± 0.14
77 | AAGUGCCGCCAUCUUUUGAGUGU | 0.888 ± 0.34
78 | AAGUGCCUCCUUUUAGAGUGUU | 0.982 ± 0.27
79 | AAGUGCUGUCAUAGCUGAGGUC | 0.879 ± 0.58
80 | AAGUGCUUCCUUUUAGAGGGUU | 0.817 ± 0.012
81 | AAGUGUGCAGGGCACUGGU | 2.33 ± 0.23
82 | AAGUUCUGUUAUACACUCAGGC | 1.154 ± 0.01
83 | AAUAAUACAUGGUUGAUCUUU | 1.38 ± 0.066
84 | AAUAUAACACAGAUGGCCUGU | 1.36 ± 0.25
85 | AAUAUUAUACAGUCAACCUCU | 1.21 ± 0.51
86 | AAUCACUAACCACACGGCCAGG | 1.79 ± 0.65
87 | AAUCAUACACGGUUGACCUAUU | 1.41 ± 0.42
88 | AAUCAUACAGGGACAUCCAGUU | 1.86 ± 0.16
89 | AAUCAUGUGCAGUGCCAAUAUG | 1.51 ± 0.15
90 | AAUCCUUGGAACCUAGGUGUGAGU | 2.15 ± 0.11
91 | AAUCCUUUGUCCCUGGGUGAGA | 1.76 ± 0.094
92 | AAUCGUACAGGGUCAUCCACUU | 1.46 ± 0.051
93 | AAUGACACGAUCACUCCCGUUGA | 1.48 ± 0.35
94 | AAUGCACCCGGGCAAGGAUUCU | 1.91 ± 0.056
95 | AAUGCACCUGGGCAAGGAUUCA | 1.43 ± 0.42
96 | AAUGGAUUUUUGGAGCAGG | 2.12 ± 0.2

Row | Sequence | HRG-induced Akt activation (log2)
97 | AAUGGCGCCACUAGGGUUGUG | 1.42 ± 0.35
98 | AAUUGCACGGUAUCCAUCUGUA | 1.15 ± 0.15
99 | AAUUGCACUUUAGCAAUGGUGA | 1.14 ± 0.04
100 | ACAAAGUGCUUCCCUUUAGAGU | 1.75 ± 0.12
101 | ACAAAGUGCUUCCCUUUAGAGUGU | 1.41 ± 0.53
102 | ACACAGGGCUGUUGUGAAGACU | 1.74 ± 0.1
103 | ACAGAUUCGAUUCUAGGGGAAU | 1.75 ± 0.2
104 | ACAGCAGGCACAGACAGGCAGU | 1.75 ± 0.28
105 | ACAGGUGAGGUUCUUGGGAGCC | 1.32 ± 0.087
106 | ACAGUAGAGGGAGGAAUCGCAG | 1.42 ± 0.22
107 | ACAGUAGUCUGCACAUUGGUUA | 1.692 ± 0.0034
108 | ACAGUCUGCUGAGGUUGGAGC | 1.54 ± 0.044
109 | ACCACUGACCGUUGACUGUACC | 1.81 ± 0.74
110 | ACCAGGAGGCUGAGGCCCCU | 1.68 ± 0.1
111 | ACCAUCGACCGUUGAUUGUACC | 1.35 ± 0.22
112 | ACCCGUCCCGUUCGUCCCCGGA | 1.513 ± 0.0044
113 | ACCCUAUCAAUAUUGUCUCUGC | 1.33 ± 0.23
114 | ACCGUGCAAAGGUAGCAUA | 1.89 ± 0.11
115 | ACCGUGGCUUUCGAUUGUUACU | 1.58 ± 0.11
116 | ACCUGGCAUACAAUGUAGAUUU | 1.81 ± 0.29
117 | ACCUUCUUGUAUAAGCACUGUGCUAAA | 1.54 ± 0.13
118 | ACCUUGCCUUGCUGCCCGGGCC | 1.06 ± 0.23
119 | ACGCCCUUCCCCCCCUUCUUCA | 1.22 ± 0.47
120 | ACGGAUGUUUGAGCAUGUGCUA | 2.15 ± 0.13

Row | Sequence | HRG-induced Akt activation (log2)
121 | ACGGGUUAGGCUCUUGGGAGCU | 1.38 ± 0.043
122 | ACGGUGCUGGAUGUGGCCUUU | 1.92 ± 0.082
123 | ACGUUGGCUCUGGUGGUG | 1.17 ± 0.014
124 | ACUCAAAACCCUUCAGUGACUU | 1.79 ± 0.18
125 | ACUCAAAAUGGGGGCGCUUUCC | 1.51 ± 0.055
126 | ACUCAAACUGUGGGGGCACU | 0.915 ± 0.061
127 | ACUCCAGCCCCACAGCCUCAGC | 1.84 ± 0.05
128 | ACUCCAUUUGUUUUGAUGAUGGA | 1.19 ± 0.29
129 | ACUCGGCGUGGCGUCGGUCGUG | 2.34 ± 0.17
130 | ACUCUAGCUGCCAAAGGCGCU | 1.02 ± 0.67
131 | ACUCUUUCCCUGUUGCACUAC | 1.677 ± 0.0095
132 | ACUGAUUUCUUUUGGUGUUCAG | 1.47 ± 0.082
133 | ACUGCAGUGAAGGCACUUGUAG | 1.646 ± 0.0061
134 | ACUGCAUUAUGAGCACUUAAAG | 1.66 ± 0.41
135 | ACUGCCCCAGGUGCUGCUGG | 1.25 ± 0.16
136 | ACUGCCCUAAGUGCUCCUUCUGG | 1.72 ± 0.1
137 | ACUGCUGAGCUAGCACUUCCCG | 1.04 ± 0.26
138 | ACUGGACUUAGGGUCAGAAGGC | 2.01 ± 0.38
139 | ACUGGACUUGGAGUCAGAAGG | 1.47 ± 0.21
140 | ACUGGCUAGGGAAAAUGAUUGGAU | 1.24 ± 0.61
